Source: the NIST ThermoML archive (doi:10.1021/acs.jced.7b01053)
“And” between values parts separate entries of the source, which are not always exact repeats. Equal entries are not always repeated. Numbers after ± are expanded uncertainties.

Test: mn = molality of the nth substance listed, in mol/kg
Settings: 293 K, 100 kPa, Liquid, Alternating current cell with electrodes

CC(=O)[O-].OCC[NH2+]CCO [2,2'-azanediylbis(ethanol) acetate] + O
Settings	electrical conductivity
m1 = 0.02102	0.103 ± 0.01 S/m
m1 = 0.02229	0.092 ± 0.011 S/m
m1 = 0.0413	0.189 ± 0.011 S/m
m1 = 0.04556	0.185 ± 0.011 S/m
m1 = 0.06489	0.299 ± 0.021 S/m
m1 = 0.06982	0.299 ± 0.021 S/m
m1 = 0.08642	0.38 ± 0.027 S/m
m1 = 0.0929	0.387 ± 0.027 S/m
m1 = 0.11	0.471 ± 0.034 S/m
m1 = 0.1182	0.481 ± 0.035 S/m
m1 = 0.133	0.551 ± 0.042 S/m
m1 = 0.1442	0.574 ± 0.044 S/m
m1 = 0.1566	0.637 ± 0.051 S/m
m1 = 0.17	0.664 ± 0.053 S/m
m1 = 0.1784	0.715 ± 0.059 S/m
m1 = 0.1932	0.749 ± 0.063 S/m
m1 = 0.2015	0.79 ± 0.068 S/m
m1 = 0.2176	0.822 ± 0.072 S/m
m1 = 0.2233	0.87 ± 0.078 S/m
m1 = 0.2404	0.892 ± 0.081 S/m
m1 = 0.2459	0.947 ± 0.088 S/m
m1 = 0.2633	0.966 ± 0.094 S/m
m1 = 0.2671	1.01 ± 0.1 S/m
m1 = 0.2853	1.03 ± 0.1 S/m
m1 = 0.2885	1.08 ± 0.11 S/m
m1 = 0.3076	1.11 ± 0.11 S/m
m1 = 0.3083	1.14 ± 0.12 S/m
m1 = 0.3285	1.16 S/m and 1.2 S/m
m1 = 0.3471	1.26 ± 0.14 S/m
m1 = 0.3495	1.22 ± 0.13 S/m
m1 = 0.3658	1.32 ± 0.15 S/m
m1 = 0.3689	1.27 ± 0.14 S/m
m1 = 0.3832	1.37 ± 0.15 S/m
m1 = 0.3886	1.33 ± 0.15 S/m
m1 = 0.4004	1.42 ± 0.16 S/m
m1 = 0.4068	1.38 ± 0.15 S/m
m1 = 0.4163	1.46 ± 0.17 S/m
m1 = 0.4248	1.43 ± 0.16 S/m
m1 = 0.4322	1.51 ± 0.18 S/m
m1 = 0.4417	1.47 ± 0.17 S/m
m1 = 0.4472	1.55 ± 0.19 S/m
m1 = 0.4583	1.51 ± 0.18 S/m
m1 = 0.4617	1.59 ± 0.19 S/m
m1 = 0.4738	1.56 ± 0.19 S/m
m1 = 0.4751	1.64 ± 0.2 S/m
m1 = 0.4881	1.68 ± 0.21 S/m
m1 = 0.489	1.61 ± 0.2 S/m
m1 = 0.5005	1.73 ± 0.23 S/m
m1 = 0.5032	1.65 ± 0.2 S/m
m1 = 0.5129	1.76 ± 0.23 S/m
m1 = 0.5172	1.68 ± 0.21 S/m
m1 = 0.5243	1.8 ± 0.23 S/m
m1 = 0.5302	1.7 ± 0.22 S/m
m1 = 0.5355	1.83 ± 0.24 S/m
m1 = 0.5436	1.73 ± 0.22 S/m
m1 = 0.5561	1.76 ± 0.23 S/m

CCCC(=O)[O-].[NH3+]CCO [2-hydroxy ethylammonium butanoate] + O
Settings	electrical conductivity [S/m]
m1 = 0.01855	0.092 ± 0.015
m1 = 0.0207	0.107 ± 0.015
m1 = 0.03507	0.163 ± 0.013
m1 = 0.0415	0.196 ± 0.015
m1 = 0.05678	0.264 ± 0.019
m1 = 0.06247	0.295 ± 0.02
m1 = 0.07651	0.338 ± 0.023
m1 = 0.08283	0.372 ± 0.026
m1 = 0.09713	0.41 ± 0.029
m1 = 0.1049	0.449 ± 0.032
m1 = 0.119	0.485 ± 0.035
m1 = 0.1258	0.511 ± 0.038
m1 = 0.1407	0.563 ± 0.043
m1 = 0.1476	0.585 ± 0.045
m1 = 0.1628	0.637 ± 0.051
m1 = 0.1681	0.649 ± 0.052
m1 = 0.184	0.709 ± 0.058
m1 = 0.1888	0.711 ± 0.059
m1 = 0.2055	0.77 ± 0.065
m1 = 0.2087	0.764 ± 0.065
m1 = 0.2251	0.834 ± 0.074
m1 = 0.2284	0.81 ± 0.072
m1 = 0.2448	0.894 ± 0.089
m1 = 0.2469	0.857 ± 0.084
m1 = 0.2626	0.946 ± 0.094
m1 = 0.2654	0.9 ± 0.088
m1 = 0.2809	0.994 ± 0.095
m1 = 0.2825	0.94 ± 0.087
m1 = 0.298	1.04 ± 0.12
m1 = 0.3001	0.982 ± 0.11
m1 = 0.3153	1.09 ± 0.11
m1 = 0.3165	1.02 ± 0.098
m1 = 0.331	1.12 ± 0.11
m1 = 0.3327	1.06 ± 0.1
m1 = 0.3468	1.17 ± 0.12
m1 = 0.3475	1.09 ± 0.11
m1 = 0.3613	1.2 ± 0.13
m1 = 0.3622	1.12 ± 0.11
m1 = 0.3758	1.15 ± 0.12
m1 = 0.3759	1.23 ± 0.13
m1 = 0.3892	1.27 ± 0.14
m1 = 0.3894	1.18 ± 0.12
m1 = 0.4021	1.2 ± 0.12
m1 = 0.4023	1.3 ± 0.14
m1 = 0.4144	1.23 ± 0.13
m1 = 0.4145	1.32 ± 0.14
m1 = 0.4231	1.34 ± 0.15
m1 = 0.4259	1.25 ± 0.13
m1 = 0.4344	1.36 ± 0.15
m1 = 0.4374	1.27 ± 0.14
m1 = 0.4449	1.39 ± 0.16
m1 = 0.448	1.29 ± 0.14
m1 = 0.4554	1.41 ± 0.16
m1 = 0.4584	1.32 ± 0.14
m1 = 0.4651	1.43 ± 0.16
m1 = 0.4681	1.33 ± 0.15
m1 = 0.4746	1.45 ± 0.17
m1 = 0.4775	1.35 ± 0.15
m1 = 0.4835	1.46 ± 0.17
m1 = 0.4864	1.38 ± 0.15
m1 = 0.4922	1.48 ± 0.17
m1 = 0.495	1.4 ± 0.16
m1 = 0.5005	1.5 ± 0.18
m1 = 0.5032	1.41 ± 0.16
m1 = 0.5085	1.52 ± 0.18
m1 = 0.516	1.54 ± 0.18
m1 = 0.5231	1.55 ± 0.19

CCCCC(=O)[O-].[NH3+]CCO [2-hydroxy ethylammonium pentanoate] + O
Settings	electrical conductivity [S/m]
m1 = 0.01913	0.108 ± 0.011
m1 = 0.01918	0.068 ± 0.014
m1 = 0.03718	0.19 ± 0.015
m1 = 0.03781	0.126 ± 0.013
m1 = 0.05621	0.26 ± 0.019
m1 = 0.05801	0.176 ± 0.014
m1 = 0.07457	0.309 ± 0.047
m1 = 0.07759	0.244 ± 0.046
m1 = 0.09498	0.365 ± 0.04
m1 = 0.09926	0.296 ± 0.02
m1 = 0.1135	0.412 ± 0.029
m1 = 0.1187	0.344 ± 0.024
m1 = 0.1336	0.48 ± 0.035
m1 = 0.1402	0.393 ± 0.028
m1 = 0.152	0.526 ± 0.039
m1 = 0.1594	0.439 ± 0.031
m1 = 0.1718	0.578 ± 0.044
m1 = 0.1796	0.483 ± 0.035
m1 = 0.1899	0.625 ± 0.049
m1 = 0.1981	0.523 ± 0.039
m1 = 0.2067	0.661 ± 0.055
m1 = 0.2174	0.664 ± 0.053
m1 = 0.224	0.701 ± 0.058
m1 = 0.2348	0.597 ± 0.046
m1 = 0.24	0.739 ± 0.062
m1 = 0.2529	0.637 ± 0.05
m1 = 0.2565	0.776 ± 0.066
m1 = 0.2697	0.669 ± 0.13
m1 = 0.272	0.809 ± 0.14
m1 = 0.2867	0.704 ± 0.058
m1 = 0.2875	0.844 ± 0.074
m1 = 0.302	0.875 ± 0.078
m1 = 0.3024	0.734 ± 0.061
m1 = 0.3165	0.904 ± 0.083
m1 = 0.3181	0.759 ± 0.065
m1 = 0.3299	0.93 ± 0.13
m1 = 0.3329	0.786 ± 0.068
m1 = 0.3434	0.957 ± 0.09
m1 = 0.3474	0.812 ± 0.071
m1 = 0.3561	0.983 ± 0.093
m1 = 0.3608	0.832 ± 0.073
m1 = 0.3685	1.01 ± 0.097
m1 = 0.3744	0.855 ± 0.076
m1 = 0.38	1.03 ± 0.1
m1 = 0.3866	0.876 ± 0.078
m1 = 0.3914	1.05 ± 0.1
m1 = 0.3988	0.895 ± 0.081
m1 = 0.402	1.07 ± 0.11
m1 = 0.4101	0.917 ± 0.084
m1 = 0.4126	1.09 ± 0.11
m1 = 0.4215	0.925 ± 0.085
m1 = 0.4221	1.11 ± 0.11
m1 = 0.4316	1.13 ± 0.11
m1 = 0.4318	0.94 ± 0.087
m1 = 0.4404	1.14 ± 0.12
m1 = 0.4421	0.957 ± 0.089
m1 = 0.4517	0.971 ± 0.091

CCCCC(=O)[O-].C[NH2+]CCO [2-hydroxy-N-methylethanaminium pentanoate] + O
Settings	electrical conductivity [S/m]
m1 = 0.01138	0.049 ± 0.01
m1 = 0.01396	0.062 ± 0.011
m1 = 0.02431	0.098 ± 0.009
m1 = 0.02742	0.113 ± 0.009
m1 = 0.03923	0.149 ± 0.014
m1 = 0.0421	0.165 ± 0.011
m1 = 0.05224	0.191 ± 0.013
m1 = 0.05579	0.209 ± 0.023
m1 = 0.0607	0.269 ± 0.017
m1 = 0.06705	0.238 ± 0.015
m1 = 0.08075	0.293 ± 0.023
m1 = 0.08328	0.31 ± 0.024
m1 = 0.09553	0.335 ± 0.022
m1 = 0.09605	0.33 ± 0.022
m1 = 0.1092	0.375 ± 0.027
m1 = 0.1095	0.408 ± 0.029
m1 = 0.1224	0.445 ± 0.032
m1 = 0.124	0.416 ± 0.029
m1 = 0.1358	0.479 ± 0.035
m1 = 0.1372	0.449 ± 0.032
m1 = 0.1484	0.513 ± 0.046
m1 = 0.1505	0.485 ± 0.043
m1 = 0.1608	0.544 ± 0.055
m1 = 0.1632	0.498 ± 0.037
m1 = 0.1727	0.572 ± 0.044
m1 = 0.1759	0.527 ± 0.039
m1 = 0.1844	0.597 ± 0.046
m1 = 0.1879	0.551 ± 0.042
m1 = 0.1947	0.612 ± 0.048
m1 = 0.1999	0.578 ± 0.044
m1 = 0.2059	0.635 ± 0.05
m1 = 0.2113	0.602 ± 0.047
m1 = 0.2164	0.656 ± 0.052
m1 = 0.2226	0.62 ± 0.048
m1 = 0.226	0.677 ± 0.055
m1 = 0.2329	0.642 ± 0.051
m1 = 0.2359	0.697 ± 0.057
m1 = 0.2427	0.663 ± 0.053
m1 = 0.2451	0.709 ± 0.058
m1 = 0.2523	0.682 ± 0.055
m1 = 0.2541	0.727 ± 0.06
m1 = 0.262	0.701 ± 0.057
m1 = 0.2625	0.744 ± 0.062
m1 = 0.2703	0.76 ± 0.064
m1 = 0.2709	0.717 ± 0.059
m1 = 0.2783	0.776 ± 0.067
m1 = 0.2797	0.735 ± 0.062
m1 = 0.2853	0.79 ± 0.068
m1 = 0.2882	0.75 ± 0.063
m1 = 0.2929	0.804 ± 0.069
m1 = 0.2964	0.766 ± 0.065
m1 = 0.2998	0.818 ± 0.071
m1 = 0.304	0.781 ± 0.067
m1 = 0.3065	0.83 ± 0.073
m1 = 0.3114	0.794 ± 0.068
m1 = 0.3129	0.842 ± 0.074
m1 = 0.3184	0.808 ± 0.07
m1 = 0.3191	0.853 ± 0.076
m1 = 0.3249	0.868 ± 0.077
m1 = 0.3255	0.819 ± 0.071
m1 = 0.3307	0.88 ± 0.08
m1 = 0.3317	0.834 ± 0.074
m1 = 0.336	0.893 ± 0.091
m1 = 0.3378	0.847 ± 0.084
m1 = 0.3413	1.04 ± 0.1
m1 = 0.3437	0.858 ± 0.083
m1 = 0.3493	0.87 ± 0.078
m1 = 0.3546	0.882 ± 0.079
